Results published in PMC9234961 (Journal of Medicinal Chemistry, 2022).
Like-named read-outs stand apart in the source and are kept apart here.

What was measured:
[1] = target: kinases (468) (Homo sapiens, UniProt Q6ZN16); conditions: MAP3K15; 1000 nM
[2] = target: kinases (468) (Homo sapiens, UniProt P28482); conditions: ERK2 (MAPK1); 1000 nM
[3] = target: kinases (468) (Homo sapiens, UniProt O00329); conditions: PIK3CD; 1000 nM
[4] = target: kinases (468) (Homo sapiens, UniProt O60331); conditions: PIP5K1C; 1000 nM
[5] = target: kinases (468) (Homo sapiens, UniProt P21802); conditions: FGFR2; 1000 nM
[6] = target: kinases (468) (Homo sapiens, UniProt P24723); conditions: PRKCH; 1000 nM
[7] = target: kinases (468) (Homo sapiens, UniProt Q13131); conditions: AMPK-alpha1 (PRKAA1); 1000 nM
[8] = target: kinases (468) (Homo sapiens, UniProt Q9NQU5); conditions: PAK6; 1000 nM
[9] = target: kinases (468) (Homo sapiens, UniProt Q13237); conditions: PRKG2; 1000 nM
[10] = target: kinases (468) (Homo sapiens, UniProt O96017); conditions: CHEK2; 1000 nM
[11] = target: kinases (468) (Homo sapiens, UniProt P00519); conditions: 1000 nM
[12] = target: kinases (468) (Homo sapiens, UniProt Q9H3Y6); conditions: kinase SRMS (Entrez SRMS); compound concentration 1000 nM
[13] = target: kinases (468) (Homo sapiens, UniProt Q00536); conditions: PCTK1 (CDK16); 1000 nM
[14] = target: kinases (468) (Homo sapiens, UniProt Q9NRM7); conditions: LATS2; 1000 nM
[15] = target: kinases (468) (Homo sapiens, UniProt Q9HCP0); conditions: CSNK1G1; 1000 nM
[16] = target: kinases (468) (Homo sapiens, UniProt Q8IW41); conditions: MAPKAPK5; 1000 nM
[17] = target: kinases (468) (Homo sapiens, UniProt Q9Y5S2); conditions: MRCKB (CDC42BPB); 1000 nM
[18] = target: kinases (468) (Homo sapiens, UniProt Q9UQ88); conditions: CDC2L2; 1000 nM
[19] = target: kinases (468) (Homo sapiens, UniProt Q9Y6R4); conditions: MAP3K4; 1000 nM
[20] = target: kinases (468) (Homo sapiens, UniProt P49761); conditions: CLK3; 1000 nM
[21] = target: kinases (468) (Homo sapiens, UniProt Q8TF76); conditions: HASPIN (GSG2); 1000 nM
[22] = target: kinases (468) (Homo sapiens, UniProt P10721, D816V); conditions: KIT(D816V); 1000 nM
[23] = target: kinases (468) (Homo sapiens, UniProt P07948); conditions: LYN; 1000 nM
[24] = target: kinases (468) (Homo sapiens, UniProt Q13043); conditions: MST1 (STK4); 1000 nM
[25] = target: kinases (468) (Homo sapiens, UniProt Q13882); conditions: BRK (PTK6); 1000 nM
[26] = target: kinases (468) (Homo sapiens, UniProt Q9Y616); conditions: IRAK3; 1000 nM
[27] = target: kinases (468) (Homo sapiens, UniProt Q9Y6E0); conditions: MST3 (STK24); 1000 nM
[28] = target: kinases (468) (Homo sapiens, UniProt P00533, G719C); conditions: EGFR(G719C); 1000 nM
[29] = target: kinases (468) (Homo sapiens, UniProt Q96SB4); conditions: kinase SRPK1 (Entrez SRPK1); compound concentration 1000 nM
[30] = target: kinases (468) (Homo sapiens, UniProt P36888, D835H); conditions: FLT3(D835H); 1000 nM
[31] = target: kinases (468) (Homo sapiens, UniProt P00519, F317I); conditions: 1000 nM
[32] = target: kinases (468) (Homo sapiens, UniProt P09769); conditions: FGR; 1000 nM
[33] = target: kinases (468) (Homo sapiens, UniProt Q99759); conditions: MAP3K3; 1000 nM
[34] = target: kinases (468) (Homo sapiens, UniProt Q9H4B4); conditions: PLK3; 1000 nM
[35] = target: kinases (468) (Homo sapiens, UniProt P00519, M351T); conditions: ABL1(M351T)-phosphorylated; 1000 nM

Chain of kinases (468) (Homo sapiens, UniProt Q9NQU5) (Q9NQU5 whole entry): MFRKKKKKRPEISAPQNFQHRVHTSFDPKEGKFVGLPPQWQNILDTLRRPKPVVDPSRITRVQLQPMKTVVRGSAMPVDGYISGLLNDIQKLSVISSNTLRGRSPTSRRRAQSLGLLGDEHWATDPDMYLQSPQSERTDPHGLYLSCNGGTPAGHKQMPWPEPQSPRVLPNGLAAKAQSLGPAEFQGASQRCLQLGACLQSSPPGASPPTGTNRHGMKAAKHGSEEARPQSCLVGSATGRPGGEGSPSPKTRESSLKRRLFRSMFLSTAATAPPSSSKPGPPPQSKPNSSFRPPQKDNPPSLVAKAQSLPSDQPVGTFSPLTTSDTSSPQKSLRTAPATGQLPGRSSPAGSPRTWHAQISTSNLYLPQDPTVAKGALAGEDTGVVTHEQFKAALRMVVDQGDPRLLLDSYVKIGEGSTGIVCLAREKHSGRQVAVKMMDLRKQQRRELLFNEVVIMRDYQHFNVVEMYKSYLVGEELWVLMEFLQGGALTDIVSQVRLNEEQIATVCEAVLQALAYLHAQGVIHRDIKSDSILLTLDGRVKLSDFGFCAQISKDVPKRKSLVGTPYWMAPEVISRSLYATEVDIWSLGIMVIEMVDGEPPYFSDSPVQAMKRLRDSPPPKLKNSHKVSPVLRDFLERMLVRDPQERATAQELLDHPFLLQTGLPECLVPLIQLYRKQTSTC
Chain of kinases (468) (Homo sapiens, UniProt Q9HCP0) (Q9HCP0 whole entry): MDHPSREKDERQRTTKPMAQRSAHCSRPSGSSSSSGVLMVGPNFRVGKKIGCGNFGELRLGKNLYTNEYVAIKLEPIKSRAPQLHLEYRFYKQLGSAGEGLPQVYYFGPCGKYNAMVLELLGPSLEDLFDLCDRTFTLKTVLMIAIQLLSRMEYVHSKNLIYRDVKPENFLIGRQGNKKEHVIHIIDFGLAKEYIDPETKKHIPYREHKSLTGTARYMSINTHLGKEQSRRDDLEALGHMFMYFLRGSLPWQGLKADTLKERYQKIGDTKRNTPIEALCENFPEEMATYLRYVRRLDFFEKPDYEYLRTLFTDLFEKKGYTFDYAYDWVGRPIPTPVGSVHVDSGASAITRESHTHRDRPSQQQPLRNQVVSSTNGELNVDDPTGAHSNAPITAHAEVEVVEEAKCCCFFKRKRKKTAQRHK
Chain of kinases (468) (Homo sapiens, UniProt O96017) (O96017 whole entry): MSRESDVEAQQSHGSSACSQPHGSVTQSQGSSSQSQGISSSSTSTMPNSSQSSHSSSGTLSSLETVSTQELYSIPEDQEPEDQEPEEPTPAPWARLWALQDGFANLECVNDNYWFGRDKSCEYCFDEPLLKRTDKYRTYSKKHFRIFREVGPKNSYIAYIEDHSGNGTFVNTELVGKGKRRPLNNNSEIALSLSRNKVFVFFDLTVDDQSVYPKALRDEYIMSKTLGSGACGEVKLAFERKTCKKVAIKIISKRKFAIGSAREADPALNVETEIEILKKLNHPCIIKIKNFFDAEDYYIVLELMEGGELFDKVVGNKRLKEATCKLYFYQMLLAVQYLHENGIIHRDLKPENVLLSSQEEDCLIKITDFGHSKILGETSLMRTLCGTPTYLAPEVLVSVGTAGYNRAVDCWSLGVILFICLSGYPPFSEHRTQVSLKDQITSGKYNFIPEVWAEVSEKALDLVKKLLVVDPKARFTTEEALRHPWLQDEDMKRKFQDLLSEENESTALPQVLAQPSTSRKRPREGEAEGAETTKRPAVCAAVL
Chain of kinases (468) (Homo sapiens, UniProt Q8TF76) (Q8TF76 whole entry): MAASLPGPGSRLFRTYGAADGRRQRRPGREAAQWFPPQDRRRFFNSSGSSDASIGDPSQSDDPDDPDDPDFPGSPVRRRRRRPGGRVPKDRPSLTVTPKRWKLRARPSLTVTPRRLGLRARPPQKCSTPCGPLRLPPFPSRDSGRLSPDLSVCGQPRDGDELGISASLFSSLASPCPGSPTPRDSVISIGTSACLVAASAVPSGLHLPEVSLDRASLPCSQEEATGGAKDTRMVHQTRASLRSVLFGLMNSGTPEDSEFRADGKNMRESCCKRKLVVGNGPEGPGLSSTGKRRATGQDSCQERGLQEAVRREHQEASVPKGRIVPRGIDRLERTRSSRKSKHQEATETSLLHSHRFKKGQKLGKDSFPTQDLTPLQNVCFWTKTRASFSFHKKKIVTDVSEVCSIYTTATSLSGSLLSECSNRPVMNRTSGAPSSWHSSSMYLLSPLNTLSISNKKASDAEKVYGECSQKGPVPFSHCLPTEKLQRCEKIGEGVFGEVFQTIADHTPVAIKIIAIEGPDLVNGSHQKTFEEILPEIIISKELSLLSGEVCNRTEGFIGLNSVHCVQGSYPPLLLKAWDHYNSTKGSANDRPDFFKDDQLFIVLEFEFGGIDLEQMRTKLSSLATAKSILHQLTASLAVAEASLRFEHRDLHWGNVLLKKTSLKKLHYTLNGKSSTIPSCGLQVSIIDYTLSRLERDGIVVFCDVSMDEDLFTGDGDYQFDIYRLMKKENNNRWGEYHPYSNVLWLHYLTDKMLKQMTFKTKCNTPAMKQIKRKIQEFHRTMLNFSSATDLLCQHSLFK
Chain of kinases (468) (Homo sapiens, UniProt Q8IW41) (Q8IW41 whole entry): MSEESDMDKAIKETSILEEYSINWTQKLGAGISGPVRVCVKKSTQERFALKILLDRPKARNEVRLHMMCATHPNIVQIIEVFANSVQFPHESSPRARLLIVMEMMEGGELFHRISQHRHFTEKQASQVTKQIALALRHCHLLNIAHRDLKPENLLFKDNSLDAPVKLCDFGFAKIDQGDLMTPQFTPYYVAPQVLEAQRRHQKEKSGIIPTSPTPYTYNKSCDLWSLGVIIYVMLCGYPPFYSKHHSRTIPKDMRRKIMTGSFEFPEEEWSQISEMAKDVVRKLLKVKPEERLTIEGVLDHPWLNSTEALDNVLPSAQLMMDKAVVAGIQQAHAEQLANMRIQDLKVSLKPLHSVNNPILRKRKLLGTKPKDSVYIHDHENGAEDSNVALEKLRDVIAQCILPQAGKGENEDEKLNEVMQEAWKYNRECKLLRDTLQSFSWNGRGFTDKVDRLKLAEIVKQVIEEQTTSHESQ
Chain of kinases (468) (Homo sapiens, UniProt Q9Y6R4) (Q9Y6R4 whole entry): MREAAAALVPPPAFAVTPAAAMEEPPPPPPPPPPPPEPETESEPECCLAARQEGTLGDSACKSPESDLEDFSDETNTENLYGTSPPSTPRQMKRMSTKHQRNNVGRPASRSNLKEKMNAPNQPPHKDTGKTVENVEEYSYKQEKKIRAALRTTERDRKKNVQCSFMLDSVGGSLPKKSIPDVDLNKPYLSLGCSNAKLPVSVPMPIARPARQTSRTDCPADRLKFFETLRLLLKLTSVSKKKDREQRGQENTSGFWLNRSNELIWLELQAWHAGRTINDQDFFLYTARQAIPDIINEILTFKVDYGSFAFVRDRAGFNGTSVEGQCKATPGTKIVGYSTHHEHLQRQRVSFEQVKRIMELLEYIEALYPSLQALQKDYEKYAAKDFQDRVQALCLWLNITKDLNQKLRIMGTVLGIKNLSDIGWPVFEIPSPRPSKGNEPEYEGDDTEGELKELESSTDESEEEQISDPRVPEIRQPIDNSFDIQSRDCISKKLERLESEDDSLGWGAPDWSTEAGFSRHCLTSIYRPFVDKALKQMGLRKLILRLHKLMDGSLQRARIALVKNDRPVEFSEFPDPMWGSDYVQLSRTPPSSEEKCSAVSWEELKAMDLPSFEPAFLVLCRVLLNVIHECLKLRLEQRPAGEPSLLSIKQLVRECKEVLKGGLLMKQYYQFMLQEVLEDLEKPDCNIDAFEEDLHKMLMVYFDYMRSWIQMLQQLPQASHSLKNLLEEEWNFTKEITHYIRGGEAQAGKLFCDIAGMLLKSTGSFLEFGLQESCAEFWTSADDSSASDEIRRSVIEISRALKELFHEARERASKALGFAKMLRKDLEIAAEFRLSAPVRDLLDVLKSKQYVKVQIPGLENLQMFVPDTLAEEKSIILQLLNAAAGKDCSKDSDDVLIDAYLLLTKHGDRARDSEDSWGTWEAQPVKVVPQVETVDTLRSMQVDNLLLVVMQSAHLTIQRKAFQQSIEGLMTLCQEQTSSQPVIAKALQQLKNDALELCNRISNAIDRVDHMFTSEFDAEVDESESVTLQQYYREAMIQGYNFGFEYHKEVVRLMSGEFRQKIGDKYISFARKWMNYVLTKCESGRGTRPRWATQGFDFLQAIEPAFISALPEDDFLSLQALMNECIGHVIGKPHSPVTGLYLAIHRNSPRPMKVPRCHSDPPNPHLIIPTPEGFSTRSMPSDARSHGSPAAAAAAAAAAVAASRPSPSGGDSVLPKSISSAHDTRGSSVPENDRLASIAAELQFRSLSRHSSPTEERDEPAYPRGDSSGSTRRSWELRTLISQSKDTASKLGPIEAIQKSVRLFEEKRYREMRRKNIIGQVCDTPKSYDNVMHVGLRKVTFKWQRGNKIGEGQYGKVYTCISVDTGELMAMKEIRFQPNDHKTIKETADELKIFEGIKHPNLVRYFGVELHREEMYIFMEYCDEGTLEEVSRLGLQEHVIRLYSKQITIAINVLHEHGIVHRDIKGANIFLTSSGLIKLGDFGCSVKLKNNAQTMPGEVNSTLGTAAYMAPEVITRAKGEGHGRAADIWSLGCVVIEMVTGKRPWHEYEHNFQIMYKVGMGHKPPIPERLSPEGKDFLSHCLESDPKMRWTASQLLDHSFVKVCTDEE
Chain of kinases (468) (Homo sapiens, UniProt Q00536) (Q00536 whole entry): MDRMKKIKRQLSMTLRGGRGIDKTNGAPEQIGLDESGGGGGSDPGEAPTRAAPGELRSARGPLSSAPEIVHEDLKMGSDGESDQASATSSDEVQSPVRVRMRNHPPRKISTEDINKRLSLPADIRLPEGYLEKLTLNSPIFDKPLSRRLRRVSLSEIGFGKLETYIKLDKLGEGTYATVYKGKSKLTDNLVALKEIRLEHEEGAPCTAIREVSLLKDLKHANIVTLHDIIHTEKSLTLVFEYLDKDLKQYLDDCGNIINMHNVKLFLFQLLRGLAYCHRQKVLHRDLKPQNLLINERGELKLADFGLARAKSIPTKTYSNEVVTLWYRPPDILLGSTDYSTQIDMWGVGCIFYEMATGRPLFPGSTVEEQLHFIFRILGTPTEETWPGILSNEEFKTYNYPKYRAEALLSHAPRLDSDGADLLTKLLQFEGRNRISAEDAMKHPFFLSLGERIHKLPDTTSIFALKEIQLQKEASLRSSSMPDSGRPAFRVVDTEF

Compound: C[C@H]1C[C@@H](O)CN(c2ncc(Cl)c(Nc3ccc4c(c3)c3c(c(=O)n4C)OCC(F)(F)[C@H](C4CC4)N3)n2)C1 [CCT373566_9A]
- Percent Control [1]: 99%
- Percent Control [2]: 96%
- Percent Control [3]: 90%
- Percent Control [4]: 91%
- Percent Control [5]: 100%
- Percent Control [6]: 94%
- Percent Control [7]: 100%
- Percent Control [8]: 93%
- Percent Control [9]: 100%
- Percent Control [10]: 99%
- Percent Control ([11]; ABL1-nonphosphorylated): 92%
- Percent Control ([11]; ABL1-phosphorylated): 99%
- Percent Control [12]: 90%
- Percent Control [13]: 100%
- Percent Control [14]: 96%
- Percent Control [15]: 97%
- Percent Control [16]: 100%
- Percent Control [17]: 100%
- Percent Control [18]: 97%
- Percent Control [19]: 100%
- Percent Control [20]: 97%
- Percent Control [21]: 100%
- Percent Control [22]: 100%
- Percent Control [23]: 88%
- Percent Control [24]: 99%
- Percent Control [25]: 100%
- Percent Control [26]: 100%
- Percent Control [27]: 80%
- Percent Control [28]: 94%
- Percent Control [29]: 83%
- Percent Control [30]: 90%
- Percent Control ([31]; ABL1(F317I)-nonphosphorylated): 95%
- Percent Control ([31]; ABL1(F317I)-phosphorylated): 90%
- Percent Control [32]: 100%
- Percent Control [33]: 100%
- Percent Control [34]: 78%
- Percent Control [35]: 90%
